{"source": "paper PMC7002685", "about": "“Inhibition of vascular calcification by inositol phosphates derivatized with ethylene glycol oligomers” (Nature Communications, 2020)", "key": {"[1]": {"assay": "VSMC viability (MTS), compounds only", "format": "cell-based, human", "conditions": "human, compound only, read-out: VSMC viability (MTS), % of medium control"}, "[2]": {"test_system": "TNFα release from THP-1-derived macrophages", "assay": "TNFα release from macrophages, compound without CPP2", "format": "cell-based, human", "conditions": "without combined CPP2 treatment", "experimental": "THP-1 cells were plated at a density of 200,000 cells/well in a 24-well plate, differentiated as stated above, and subsequently treated with or without CPP2 (50 μg Ca/mL) in complete medium with or without test compounds (3, 10, 30, 100 μM) for 24 h at 37 °C, 5% CO2.\nHuman TNF-α was assayed in cell culture supernatants using commercial multiplex immunoassay kits (U-Plex of TNF-α (custom-made multiplex plate) and Human TNF- Kit (K151QWD-1), both from MesoScaleDiscovery, Rockville, MD, USA), and corrected for total protein content using the Micro BCA^TM Protein Assay Kit. […]\nData are expressed as\nmean ± s.d. (n = 3 independent experiments)."}, "[3]": {"assay": "PK s.c. in rats with vitamin D and warfarin-induced VC", "format": "in vivo", "conditions": "Sprague-Dawley, rat, plasma, sc, 50 mg/kg, 50 mg/kg s.c., Cardiovascular calcification model", "experimental": "Moreover, the systemic exposure of the compound after s.c. administration was assessed in rats with VC (Fig. 4f, Supplementary Table 3).\nTo study PK in rats presenting with VC, plasma samples were used from a sub-group of the study where calcification was induced with vitamin D and warfarin treatment.\nThe bioanalytical method for (OEG2)2-IP4 in rat plasma was further optimized, qualified, and applied to the comparative PK study in adenine and high-phosphate diet-induced VC vs. vitamin D-induced VC animals. The LC-MS/MS analyses were carried out using a Dionex Ultimate RSLC ultra-high-pressure liquid chromatography (UHPLC) system (Thermo Fisher Scientific) coupled with a TSQ Quantiva^TM triple quadrupole mass spectrometer. The samples were stored at 5 °C in the autosampler prior to and during the analyses. […] Gradient elution (solvent A, 20 mM ammonium acetate in water (pH 5); solvent B, ACN) was used according to the program reported in Supplementary Table 18. The injection volume was 10 µL. MS/MS parameters (MRM acquisition, cycle time 0.2 s) for (OEG2)2-IP4 are reported in Supplementary Table 19 and the ESI source, working in negative ionization mode, applied the following parameters: static spray voltage 3000 V ion transfer tube and vaporizer temperatures at 400 and 100 °C, respectively; sheath and auxiliary gas (nitrogen) flow rates at 80 and 3 (arbitrary units). For the quantitative determination in rat plasma, product ion m/z 158.9 was selected because it provided the best sensitivity and selectivity. Calibration curve and quality control samples were prepared by adding 2 μL of working solution to 38 μL rat blank K3EDTA plasma (Biochemed, Winchester, VA) and precipitating plasma protein by addition of 120 μL of MeOH including internal standard OEG11-IP5. Samples were vortexed 1 min and centrifuged at (22,000 × g, 4 °C, 10 min). Supernatants (90 μL) were then transferred into a glass vial with insert and injected onto LC-MS/MS system. Both in adenine and high-phosphate diet-induced VC and vitamin D-induced VC rat PK samples were prepared for analysis in an analogous manner as done for spiked samples (assay volume 40 μL). The LLOQ and LOD in rat plasma for (OEG2)2-IP4 were 50 and 10 ng/mL, respectively. The ULOQ and detection was 50,000 ng/mL."}, "[4]": {"target": "T1, Endothelin ETA (Homo sapiens, UniProt P25101)", "T1 construct": "purchased Eurofins Panlabs Discovery Services Taiwan, Ltd", "T1 sequence (P25101 21-427)": "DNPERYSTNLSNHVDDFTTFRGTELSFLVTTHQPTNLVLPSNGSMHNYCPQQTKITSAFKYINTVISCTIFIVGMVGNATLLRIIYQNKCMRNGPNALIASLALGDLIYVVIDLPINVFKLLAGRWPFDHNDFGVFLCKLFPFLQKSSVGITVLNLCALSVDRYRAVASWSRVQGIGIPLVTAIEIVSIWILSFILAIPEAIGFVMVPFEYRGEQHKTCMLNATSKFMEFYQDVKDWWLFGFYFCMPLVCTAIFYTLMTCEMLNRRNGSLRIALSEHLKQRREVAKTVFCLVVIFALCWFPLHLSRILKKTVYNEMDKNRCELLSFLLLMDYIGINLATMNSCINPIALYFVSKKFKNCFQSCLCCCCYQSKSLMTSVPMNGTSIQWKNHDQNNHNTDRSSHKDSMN", "assay": "Off-target 224010", "format": "binding", "experimental": "(§1) The potential off-target activity of 10 µM (OEG2)2-IP4 was assessed against a panel of 87 enzymes, receptors, or ion channels that are used in standard safety pharmacology screens.\n(§2) 3.2. Off-target screening assay\n(§3) The experiments were conducted by a contract research organization (Eurofins Panlabs Discovery Services Taiwan, Ltd.) and details on the respective assays can be retrieved via the catalog number provided in Supplementary Table 11 from the company’s webpage\n(§4) (https://www.eurofinsdiscoveryservices.com/). […]\n(§5) At sacrifice the left tibia of animals of the rat model with dietary adenine/high-phosphate-induced uremia and VC was collected, fixed with 70% v/v EtOH and embedded in methyl methacrylate. The trabecular bone compartment is known to be the most metabolic active i.e. actively re-structured bone compartment in CKD. Therefore, histomorphometric and micro-computed tomography (µCT) analysis of bone was performed on the trabecular compartment. Tibial sections were Goldner-stained for histomorphometric analysis of the proximal metaphysis using the AxioVision Release 4.5 software, as […]\n(§6) described previously5. […]"}, "[5]": {"target": "T2, Platelet Activating Factor (PAF) (Homo sapiens, UniProt P25105)", "T2 construct": "purchased Eurofins Panlabs Discovery Services Taiwan, Ltd", "T2 sequence (P25105 whole entry)": "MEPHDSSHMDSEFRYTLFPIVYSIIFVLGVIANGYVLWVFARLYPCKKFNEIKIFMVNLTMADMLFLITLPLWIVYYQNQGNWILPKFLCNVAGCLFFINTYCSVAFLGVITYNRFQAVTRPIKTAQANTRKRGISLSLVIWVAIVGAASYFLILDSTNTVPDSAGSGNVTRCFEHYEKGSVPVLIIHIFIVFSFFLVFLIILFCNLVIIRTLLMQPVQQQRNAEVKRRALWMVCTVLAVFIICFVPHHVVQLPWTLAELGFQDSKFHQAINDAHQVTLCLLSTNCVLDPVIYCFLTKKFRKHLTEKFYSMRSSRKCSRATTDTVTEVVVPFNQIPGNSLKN", "assay": "Off-target 265010", "format": "binding", "experimental": "as §1, §2\nThe experiments were conducted by a contract research organization (Eurofins Panlabs Discovery\nServices Taiwan, Ltd.) and details on the respective assays can be retrieved via the catalog number\nprovided in Supplementary Table 11 from the company’s webpage\nas §4"}, "[6]": {"target": "T3, Serotonin (5-Hydroxytryptamine) 5-HT2A (Homo sapiens, UniProt P28223)", "T3 construct": "purchased Eurofins Panlabs Discovery Services Taiwan, Ltd", "T3 sequence (P28223 whole entry)": "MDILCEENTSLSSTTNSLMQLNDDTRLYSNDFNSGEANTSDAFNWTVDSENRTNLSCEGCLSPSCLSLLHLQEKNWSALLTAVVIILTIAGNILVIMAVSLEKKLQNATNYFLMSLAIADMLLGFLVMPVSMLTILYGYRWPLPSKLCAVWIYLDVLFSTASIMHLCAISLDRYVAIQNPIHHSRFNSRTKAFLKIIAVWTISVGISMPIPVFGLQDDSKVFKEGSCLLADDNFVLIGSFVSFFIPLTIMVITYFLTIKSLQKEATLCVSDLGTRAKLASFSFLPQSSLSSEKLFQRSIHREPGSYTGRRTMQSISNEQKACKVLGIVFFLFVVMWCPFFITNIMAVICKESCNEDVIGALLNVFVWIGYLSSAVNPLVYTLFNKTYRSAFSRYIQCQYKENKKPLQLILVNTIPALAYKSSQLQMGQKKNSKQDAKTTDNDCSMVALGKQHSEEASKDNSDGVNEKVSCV", "assay": "Off-target 271650", "format": "binding", "experimental": "as §1, §2, §3, §4, §5, §6"}}}
{"smiles": "COCCOCCO[C@@H]1[C@@H](OP(=O)(O)O)[C@H](OCCOCCOC)[C@@H](OP(=O)(O)O)[C@@H](OP(=O)(O)O)[C@H]1OP(=O)(O)O", "note": "[(OEG2)2-IP4, 4,6-Di-O-(methoxy-diethyleneglycol)-myo-inositol-1,2,3,5-tetrakis(phosphate)]", "values": [{"measurement": "viability at 1 µM", "setting": "[1]; 1 µM", "value": 108, "unit": "%"}, {"measurement": "viability at 10 µM", "setting": "[1]; 10 µM", "value": 106, "unit": "%"}, {"measurement": "increase in TNFα levels in supernatants", "setting": "[2]", "value": "not observed"}, {"measurement": "AUC(0-inf)", "setting": "[3]", "value": 152, "unit": "µM·h"}, {"measurement": "CL/F", "setting": "[3]", "value": "7 ± 2", "unit": "mL/min/kg"}, {"measurement": "Cmax", "setting": "[3]", "value": "34 ± 8", "unit": "µM"}, {"measurement": "half-life", "setting": "[3]", "value": "224 ± 44", "unit": "min"}, {"measurement": "AUC(0-t)", "setting": "[3]; read-out: AUC0-1440 (converted)", "value": 151, "unit": "µM·h"}, {"measurement": "MRT last", "setting": "[3]; read-out: MRT0-1440 (converted)", "value": 3.5, "unit": "h"}, {"measurement": "inhibition at 10 µM", "setting": "[4]", "value": 8, "unit": "%"}, {"measurement": "inhibition at 10 µM", "setting": "[5]", "value": -7, "unit": "%"}, {"measurement": "inhibition at 10 µM", "setting": "[6]", "value": -1, "unit": "%"}]}
